Results on 27 compounds are retold here after US20020026059A1 (priority 1995, published 2002).

Molecules are shown by their SMILES.

In the first test the test system is Phytophthora infestans. Nature of the test: whole plant or invertebrate. Format: in vivo. Particulars: in Solanum lycopersicum, 72 h, read-out: Efficacy in %, based on the untreated control.
On to `Cc1noc(C)c1S(=O)(=O)n1c(C#N)nc2cc3c(cc21)OC(F)(F)O3` [drawing 354], for which the pest or weed control at 100 ppm was 100%.
Still for that read-out and setting: for `N#Cc1nc2cc3c(cc2n1S(=O)Oc1cccs1)OC(F)(F)O3` (stereo not drawn) the value was 94%; for `Cc1nn(C)c(Cl)c1S(=O)(=O)n1c(C#N)nc2cc3c(cc21)OC(F)(F)C(F)(F)O3` [drawing 359], 94%.
The same measure, in the same setting: then `Cc1oncc1OS(=O)n1c(C#N)nc2cc3c(cc21)OC(F)(F)C(F)(F)O3` (stereo not drawn) [drawing 358], with 64%; and `Cc1noc(C)c1S(=O)(=O)n1c(C#N)nc2cc3c(cc21)OC(F)(F)C(F)(F)O3` [drawing 355], with 97%.
On the same count and under the same terms, then `COC(=O)c1csc(OS(=O)n2c(C#N)nc3cc4c(cc32)OC(F)(F)O4)c1C` (stereo not drawn), with 97%; and `N#Cc1nc2cc3c(cc2n1S(=O)(=O)c1cccs1)OC(F)(F)C(F)(F)O3` [drawing 356], with 94%; and `Cc1noc(C)c1S(=O)(=O)n1c(C#N)nc2c(Br)cc(C(F)(F)F)cc21` [drawing 363], with 74%.
Consider `COC(=O)c1sccc1S(=O)(=O)n1c(C#N)nc2cc3c(cc21)OC(F)(F)C(F)(F)O3`, for which the pest or weed control at 100 ppm came out at 82%.
Still for that read-out and setting: for `Cc1noc(C)c1OS(=O)n1c(C#N)nc2cc3c(cc21)OC(F)(F)C(F)(F)O3` (stereo not drawn) [drawing 365] the value was 97%; for `Cc1oncc1OS(=O)n1c(C#N)nc2cc3c(cc21)OC(F)(F)O3` (stereo not drawn) [drawing 362], 96%.
Consider `Cc1nn(C)c(Cl)c1S(=O)(=O)n1c(C#N)nc2cc3c(cc21)OC(F)(F)O3`, for which the pest or weed control at 100 ppm stood at 94%.

For a further test, the system named is Plasmopara viticola. Nature of the test: Plasmopara test (vines)/protective. Format: in vivo. As to conditions: Plasmopara viticola, 144 h, protective spray, active compound concentration of 100 ppm, evaluation 6 days after inoculation, read-out: Efficacy in %, based on the untreated control. The protocol: Plasmopara test (vines)/protective
Solvent: 4.7 parts by weight of acetone Emulsifier: 0.3 parts by weight of alkyl-aryl polyglycol ether
(§1) To produce a suitable preparation of active compound, 1 part by weight of active compound is mixed with the stated amounts of solvent and emulsifier, and the concentrate is diluted with water to the desired concentration.
To test for protective activity, young plants are sprayed with the preparation of active compound to run-off point. After the spray coating has dried on, the plants are inoculated with an aqueous suspension of spores of Plasmopara viticola and then remain in a humidity chamber at 20-22° C. and 100% relative atmospheric humidity for 1 day. The plants are subsequently placed in a greenhouse at 21° C. and 90% atmospheric humidity for […]. The plants are then moistened and placed in a humidity chamber for 1 day.
Evaluation is carried out 6 days after the inoculation. 0% means an efficacy corresponding to that of the control, whereas an efficacy of 100% means that no infestation is observed.
As to `N#Cc1nc2cc3c(cc2n1S(=O)Oc1cccs1)OC(F)(F)C(F)(F)O3` (stereo not drawn), the pest or weed control at 100 ppm is 80%.
On to `Cc1noc(C)c1OS(=O)n1c(C#N)nc2cc3c(cc21)OC(F)(F)C(F)(F)O3` (stereo not drawn) [drawing 367], for which the pest or weed control at 100 ppm worked out at 100%.
Still for that read-out and setting: for `Cc1nn(C)c(Cl)c1S(=O)(=O)n1c(C#N)nc2cc3c(cc21)OC(F)(F)C(F)(F)O3` [drawing 371] the value was 74%; for `Cc1oncc1OS(=O)n1c(C#N)nc2cc3c(cc21)OC(F)(F)O3` (stereo not drawn) [drawing 372], 100%.
Still for that read-out and setting: for `Cc1noc(C)c1S(=O)(=O)n1c(C#N)nc2c(Br)cc(C(F)(F)F)cc21` [drawing 373] the value was 95%; for `COC(=O)c1sccc1OS(=O)n1c(C#N)nc2cc3c(cc21)OC(F)(F)C(F)(F)O3` (stereo not drawn), 100%; for `Cc1oncc1OS(=O)n1c(C#N)nc2cc3c(cc21)OC(F)(F)C(F)(F)O3` (stereo not drawn) [drawing 370], 100%.
Same read-out and setting: then `Cc1noc(C)c1OS(=O)N1C(C#N)=NC2C=C3OC(F)(F)OC3=CC21` (stereo not drawn), with 100%.

Still in this test, the particulars now being: protective spray, active compound concentration of 100 ppm, evaluation 6 days after inoculation.
Turning to `Cc1noc(C)c1OS(=O)n1c(C#N)nc2cc3c(cc21)OC(F)(F)C(F)(F)O3` (stereo not drawn) [drawing 374], the “Efficacy in %, based on the untreated control” value (shortened to “Efficacy in %, based”) is 100%.

In a further test the test system is Venturia inaequalis. Nature of the test: Venturia test (apple)/protective. The test is classed as in vivo. Particulars: apple plants, protective spray, active compound concentration of 10 ppm, evaluation 12 days after inoculation. The method, then: Venturia test (apple)/protective
Solvent: 4.7 parts by weight of acetone Emulsifier: 0.3 parts by weight of alkylaryl polyglycol ether
as §1
To test for protective activity, young plants are sprayed with the preparation of active compound to run-off point. After the spray coating has dried on, the plants are inoculated with an aqueous suspension of conidia of the causative organism of apple scab (Venturia inaequalis) and then remain in an incubation cupboard at 20° C. and 100% relative atmospheric humidity for 1 day.
The plants are then placed in a greenhouse at 20° C. and a relative atmospheric humidity of about 70%.
Evaluation is carried out 12 days after the inoculation. 0% means an efficacy corresponding to that of the control, 100% means that no infestation is observed.
Regarding `CN(C)S(=O)(=O)n1c(C#N)nc2cc3c(cc21)OC(F)(F)C(F)(F)O3` [comparison substance (A), 2-Cyano-1-dimethylaminosulphonyl-6,6,7,7-tetrafluoro-[1,4]dioxino[2,3-f]benzimidazole], the “Efficacy in %, based” value is 43%.
Same read-out and setting: then `CN(C)OS(=O)n1c(C#N)nc2cc3c(cc21)OC(F)(F)O3` (stereo not drawn) [drawing 350], with 0%; and `CN(C)OS(=O)n1c(C#N)nc2cc3c(cc21)OC(F)(F)C(F)(F)O3` (stereo not drawn), with 43%; and `Cc1noc(C)c1S(=O)(=O)n1c(C#N)nc2cc3c(cc21)OC(F)(F)O3` [drawing 351], with 81%.
Regarding `N#Cc1nc2cc3c(cc2n1S(=O)(=O)c1cccs1)OC(F)(F)C(F)(F)O3` [drawing 353], the “Efficacy in %, based” value worked out at 87%.
The same measure, in the same setting: then `Cc1noc(C)c1S(=O)(=O)n1c(C#N)nc2cc3c(cc21)OC(F)(F)C(F)(F)O3` [drawing 352], with 58%.
